Laboratory results: paper PMC10449632, “Structural basis for translation inhibition by the glycosylated drosocin peptide” (Nature Chemical Biology, 2023)
No end group written: not given here. *: point of attachment. β‑D‑cellobiosyl = OC[C@H]1O[C@@H](O[C@H]2[C@H](O)[C@@H](O)[C@H](*)O[C@@H]2CO)[C@H](O)[C@@H](O)[C@@H]1O; β‑D‑lactosyl = OC[C@H]1O[C@@H](O[C@H]2[C@H](O)[C@@H](O)[C@H](*)O[C@@H]2CO)[C@H](O)[C@@H](O)[C@H]1O; β‑D‑maltosyl = OC[C@H]1O[C@H](O[C@H]2[C@H](O)[C@@H](O)[C@H](*)O[C@@H]2CO)[C@H](O)[C@@H](O)[C@@H]1O; α‑D‑GlcNAc = CC(=O)N[C@@H]1[C@@H](O)[C@H](O)[C@@H](CO)O[C@@H]1*; βGlc = OC[C@H]1O[C@@H](*)[C@H](O)[C@@H](O)[C@@H]1O; βGal = OC[C@H]1O[C@@H](*)[C@H](O)[C@@H](O)[C@H]1O

Assays:
[1] = system: in vitro translation, E. coli PURExpress system, firefly luciferase (Fluc) mRNA; details: using the same system; cited from earlier work
Method: Unmodified wild-type drosocin and Dro-3P have been reported to inhibit in vitro translation reactions[25],[26]; however, the naturally occurring glycosylated forms of drosocin have not been previously tested. To investigate this, we compared the effect of increasing concentrations (0–150 μM) of modified Dro1 and Dro2 with unmodified Dro, Dro-3P and Api137 using a cell-free in vitro translation system and firefly luciferase (Fluc) mRNA as a template (Fig. 1e), as we have used previously for assessing the activity of other PrAMPs[4],[6],[8],[9],[32],[33].

[2] = system: ribosomes at the stop codon of MLIF-UAA mRNA in the presence of RF1; test: Toeprinting assay on MLIF*-mRNA with RF1; type: biochemical, Escherichia coli; details: for Relative stop band intensity signal: 30 μM compound, MLIF*-mRNA, plotted values
Method: (§1) To ascertain which step during protein synthesis is affected by drosocin, we performed toeprinting assays, where reverse transcription is used to monitor the position of ribosomes on a defined mRNA[34].
(§2) Toeprinting reactions were performed as described previously. In brief, reactions were performed with 6 μl of PURExpress ΔRF123 in vitro protein synthesis system (NEB) in the presence of 1× RF3 and either 1× or 10× of RF1 or RF2 (relative to the manufacturer’s recommendation). The reactions were carried out on an MLIF-UAA-toeprint template (5′-[…]-3′, ORF start codon and stop codon are underlined bold), containing T7 promoter, a ribosome binding site, an MLIF-coding ORF and the NV1* primer binding site. The template is a version of the ErmBL template with a truncated ORF and addition of a isoleucine coding codon at the third position in the ORF. The template was generated by polymerase chain reaction of two overlapping 77-nt- and 78-nt-long primers. The reactions contained 30 ng of the MLIF-UAA-toeprint DNA template. The reactions were supplemented with Api137, thiostrepton or one of the drosocin derivates as specified. The transcription–translation reactions were incubated for 15 minutes at 37 °C. The reverse transcription on the MLIF-short-UAA toeprint template was carried out using AMV RT and primer NV*1-Alexa 647 (5′-[…]-3′). The transcription–translation reactions were incubated with AMV RT and NV*1-Alexa 647 for 20 minutes at 37 °C. mRNA degradation was carried out by the addition of 1 µl of 5 M NaOH. The reactions were neutralized with 0.7 µl of 25% HCl, and nucleotide removal was performed with the QIAquick Nucleotide Removal Kit (Qiagen). The samples were dried under vacuum for 2 hours at 60 °C for subsequent gel electrophoresis. The 6% acrylamide gels were scanned on a Typhoon scanner (GE Healthcare).

[3] = system: ribosomes at the stop codon of MLIF-UAA mRNA in the presence of RF2; test: Toeprinting assay on MLIF*-mRNA with RF2; type: biochemical, Escherichia coli; details: Fig 1h, RF2 (10X), 30 μM compound, plotted values
Method: as §1, §2

[4] = system: in vitro translation, E. coli PURExpress system, firefly luciferase (Fluc) mRNA; test: In vitro translation assay with Fluc reporter; type: biochemical, Escherichia coli
Method: To investigate this, we compared the effect of increasing concentrations (0–150 μM) of modified Dro1 and Dro2 with unmodified Dro, Dro-3P and Api137 using a cell-free in vitro translation system and firefly luciferase (Fluc) mRNA as a template (Fig. 1e), as we have used previously for assessing the activity of other PrAMPs[4],[6],[8],[9],[32],[33].
The in vitro translation assay was carried out as described previously[4],[8] using the E. coli PURExpress system (New England Biolabs (NEB), E6800S). Then, 1 µl of antibiotic solution was added to 5 µl of PURExpress reaction mix. Each reaction contained 10 ng μl^−1 of mRNA encoding the Fluc, which was in vitro transcribed from a pIVEX-2.3MCS vector containing the Fluc gene using T7 polymerase (Thermo Fisher Scientific). The reaction mix was incubated for 30 minutes at 32 °C while shaking (600 r.p.m.). Reactions were stopped with 5 µl of kanamycin (50 mg ml^−1) and transferred into a 96-well microplate (Greiner Lumitrac, non-binding, white, chimney). Next, 40 µl of luciferase assay substrate solution (Promega, E1501) was added, and luminescence was measured using a plate reader (Tecan Infinite 200 PRO). Nuclease-free water was added instead of antibiotic as control. Absolute luminescence values were normalized using reactions without antibiotic. All assays were done as triplicates with individually prepared reaction mix.

[5] = system: E. coli Keio wt (BW25113); test: Antibiotic susceptibility (growth) assay, E. coli Keio wild-type; type: cell-based, Escherichia coli; details: 30 μM peptide; for Average of normalized growth: average of three biological replicates; for growth inhibition in rich medium: rich (LB) medium
From the text: (§3) Many PrAMPs use the SbmA transporter to pass through the E. coli inner membrane[4],[10],[31]; however, whether drosocin also uses SbmA remains, to our knowledge, unknown. To address this, we monitored the effect of the presence of diverse drosocin peptides (Fig. 1a,b and Supplementary Fig. 1a) on the growth of the wild-type E. coli strain BW25113 containing SbmA or lacking SbmA (ΔsbmA) (Fig. 1c,d). We compared unmodified drosocin (Dro) with various modified forms (Fig. 1a,b). The modified forms included the naturally occurring Dro1 and Dro2 that carry either a monosaccharide (α-D-GalNAc) or disaccharide (β-D-Gal(1→3)-α-D-GalNAc) attached to Thr11, respectively (Fig. 1b). In addition, we examined the previously reported[23],[24] drosocin derivatives bearing β-D-Maltosyl (Dro3), α-D-GlcNAc (Dro4), β-D-Gal (Dro5), β-D-Glc (Dro6), β-D-Lactosyl (Dro7) and β-D-Cellobiosyl (Dro8) modifications on Thr11 (Fig. 1a,b and Supplementary Fig. 1a). Finally, we also included in our analysis the synthetic unmodified drosocin derivative with proline substitutions at positions 7, 11 and 12 (Dro-3P) (Fig. 1a), which was previously reported to have similar antimicrobial activity to the monosaccharide form of drosocin[25]. Growth was monitored in both rich (LB) and minimal medium in the presence of 30 μM of each peptide and normalized with the growth in the absence of the compounds (Methods). […] We also observed no inhibition for Dro2 nor for any of the β-linked disaccharides (Dro3, Dro6 or Dro7). […] By contrast, all drosocin peptides inhibited growth of the E. coli BW25113 strain in minimal medium, albeit to different extents (Fig. 1d).
(§4) Strains E. coli Keio wild-type and E. coli Keio ΔsbmA used from the Keio knockout collection (Horizon, https://horizondiscovery.com). Wild-type E. coli SQ110 (ΔrrnGADBHC(ptRNA67))[47] and SQ171 (ΔrrnGADEHBC(pKK3535, ptRNA67))[47] strains and related mutants E. coli SQ110 A2059G and E. coli SQ171 A2503G were obtained from the previous Api137 study. E. coli strains SQ171 bearing A752G, U2609C and A752G:U2609C mutations[43] and E. coli SQ171 U2609G[48] were generated previously.
(§5) The susceptibility of E. coli strains to compounds was evaluated by monitoring the bacterial growth in presence of increasing concentrations of the compound of interest. In brief, bacteria were inoculated in a total volume of 100 μl of medium contained in a well of a 96-well microplate (round bottom, with cap, sterile; Sarstedt). The medium used was either LB, as rich medium, or ATCC medium (778 Davis and Mingioli glucose minimal medium), as minimal medium. Before inoculation, bacteria were grown up to exponential phase and then inoculated into the culture mix, containing selective antibiotic if necessary, with an initial optical density at 600 nm (OD600) of 0.05. Values measured from wells containing just the medium were used as a blank. The growth in each well was monitored by measuring the OD600 every 10 minutes for a total of 20 hours at 37 °C with shaking using a plate reader (Tecan Infinite 200 PRO). The inhibition resulting from a compound’s concentration was evaluated by normalizing the OD600 at t = 12 hours (corresponding to the end of the log phase) from the treated culture to the untreated one. For each compound, the concentrations tested were 5 μM, 10 μM and 30 μM. Each single titration assay was done in triplicate with individually prepared culture mixes. For each concentration, the standard deviation was calculated, taking into account each single replica and its specific technical error from the plate reader.

[6] = system: E. coli Keio ∆sbmA (BW25113 ΔsbmA); test: Antibiotic susceptibility (growth) assay, E. coli Keio ΔsbmA; type: cell-based, Escherichia coli; details: 30 μM peptide, average of three biological replicates
From the text: as §3, §4, §5

| Substance | IC50 [1] [µM] | Relative stop band intensity signal ([2]; Fig 1f, RF1 (1X)) | Relative stop band intensity signal ([2]; Fig 1g, RF1 (10X)) | Relative stop band intensity signal [3] | maximum inhibition of in vitro translation ([4]; at the highest concentration tested of 150 μM, Fluc mRNA, luminescence) [%] | Average of normalized growth ([5]; LB rich medium) [%] | Average of normalized growth ([5]; Minimal medium) [%] | growth inhibition in rich medium [5] | Average of normalized growth ([6]; LB rich medium) [%] | Average of normalized growth ([6]; Minimal medium) [%] | stalling of ribosomes at the stop codon ([2]; toeprinting, 30 μM peptide, 1× or 10× RF1 (trend also with ten-fold RF2)) | activity in in vitro translation assays ([4]; Fluc reporter, increasing concentrations of peptide) |
| --- | --- | --- | --- | --- | --- | --- | --- | --- | --- | --- | --- | --- |
| Bac7: type I PrAMP of mammalian origin (RRIRPRPPRLPRPRPRPLPFPRPGPRPIPRPLPFPRPGPRPIPRPLPFPRPGPRPIPRP; Bactenecin 7; UniProt P19661 131-189, looked up) | < 1 |  |  |  |  |  |  |  |  |  |  |  |
| Dro2: naturally occurring drosocin carrying disaccharide β-D-Gal(1→3)-α-D-GalNAc attached to Thr11 (GKPRPYSPRPTSHPRPIRV; not fully specified (residue 11); UniProt P36193 22-40, looked up) |  | 0.3007 | 0.625 | 0.06699 | 40 | 92 | 25 | no inhibition | 96 | 101 |  |  |
| Dro3: drosocin derivative bearing β-D-Maltosyl on Thr11 (GKPRPYSPRPT(β‑D‑maltosyl)SHPRPIRV; UniProt P36193 22-40, looked up) |  | 0.2727 | 0.5086 | 0.02902 |  | 97 | 41 | no inhibition | 97 | 105 |  |  |
| Dro4: drosocin derivative bearing α-D-GlcNAc on Thr11 (GKPRPYSPRPT(α‑D‑GlcNAc)SHPRPIRV; UniProt P36193 22-40, looked up) |  | 0.3375 | 0.6077 | 0.166 |  | 60 | 38 | growth inhibition | 97 | 103 | to a lesser extent |  |
| Dro5: drosocin derivative bearing β-D-Gal on Thr11 (GKPRPYSPRPT(βGal)SHPRPIRV; UniProt P36193 22-40, looked up) |  | 0.2051 | 0.5557 | 0.04941 |  | 93 | 24 | no inhibition | 100 | 107 |  |  |
| Dro6: drosocin derivative bearing β-D-Glc on Thr11 (GKPRPYSPRPT(βGlc)SHPRPIRV; UniProt P36193 22-40, looked up) |  | 0.04582 | 0.4077 | 0.01282 |  | 94 | 72 | no inhibition | 99 | 106 |  |  |
| Dro7: drosocin derivative bearing β-D-Lactosyl on Thr11 (GKPRPYSPRPT(β‑D‑lactosyl)SHPRPIRV; UniProt P36193 22-40, looked up) |  | 0.1333 | 0.3035 | 0.0472 |  | 97 | 50 | no inhibition | 101 | 109 |  |  |
| Dro8: drosocin derivative bearing β-D-Cellobiosyl on Thr11 (GKPRPYSPRPT(β‑D‑cellobiosyl)SHPRPIRV; UniProt P36193 22-40, looked up) |  | 0.1518 | 0.3011 | 0.03669 |  | 97 | 85 |  | 102 | 112 |  |  |
| Dro-R18A (GKPRPYSPRPTSHPRPIAV; ends and bridges not checked; UniProt P36193 22-40, looked up, variant R18A) |  |  |  |  |  |  |  |  |  |  |  | complete loss of activity |
